Patent US20260184708A1, “PYRIDAZINONES AND METHODS OF USE THEREOF” (GFB (ABC), LLC, priority 2017, published 2026)
Read-outs that look alike come from different tables or passages of the source. Each block holds one compound with its values, some of them ahead of it.

Biological target: T1, TRPC5 (Homo sapiens, UniProt Q9UL62)
T1 construct: expressed in transfected cells; host or cells: HEK 293
T1 sequence (Q9UL62 1-973): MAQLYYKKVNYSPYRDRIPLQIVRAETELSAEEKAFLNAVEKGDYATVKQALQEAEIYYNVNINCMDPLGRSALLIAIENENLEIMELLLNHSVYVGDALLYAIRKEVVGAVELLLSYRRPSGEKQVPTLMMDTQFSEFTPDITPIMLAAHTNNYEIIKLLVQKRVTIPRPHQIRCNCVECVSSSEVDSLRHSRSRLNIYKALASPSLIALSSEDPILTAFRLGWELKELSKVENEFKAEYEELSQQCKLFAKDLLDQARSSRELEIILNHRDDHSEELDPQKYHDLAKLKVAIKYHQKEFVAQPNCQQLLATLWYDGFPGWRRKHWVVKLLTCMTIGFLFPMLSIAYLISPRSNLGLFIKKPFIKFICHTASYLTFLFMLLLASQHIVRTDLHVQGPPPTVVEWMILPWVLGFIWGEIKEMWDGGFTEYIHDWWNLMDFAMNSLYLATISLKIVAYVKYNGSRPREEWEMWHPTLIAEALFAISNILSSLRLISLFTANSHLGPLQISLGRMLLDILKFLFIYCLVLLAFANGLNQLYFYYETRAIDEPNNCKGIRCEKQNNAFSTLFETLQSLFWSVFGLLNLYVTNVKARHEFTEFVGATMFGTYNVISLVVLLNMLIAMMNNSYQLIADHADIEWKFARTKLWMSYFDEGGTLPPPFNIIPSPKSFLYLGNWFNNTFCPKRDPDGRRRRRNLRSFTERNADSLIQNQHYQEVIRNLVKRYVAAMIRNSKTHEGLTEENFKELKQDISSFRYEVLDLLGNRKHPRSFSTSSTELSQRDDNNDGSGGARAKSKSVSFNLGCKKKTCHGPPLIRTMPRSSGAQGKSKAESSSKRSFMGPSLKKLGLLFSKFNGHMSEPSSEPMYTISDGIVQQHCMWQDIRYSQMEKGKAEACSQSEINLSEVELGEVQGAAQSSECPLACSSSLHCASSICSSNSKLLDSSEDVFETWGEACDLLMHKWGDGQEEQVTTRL
Assay: TRPC5 automated patch clamp assay (Qpatch), current block after rosiglitazone stimulation
Type: cell-based
Settings: HEK293 cells overexpressing TRPC5, rosiglitazone stimulation
Procedure: HEK 293 cells expressing human TRPC5 were harvested, re-suspended in serum free medium, and added to the automated platform and used within 2-3 hours. Internal and external physiological solutions were freshly prepared prior to the assay. The external solution contained: 145 mM NaCl, 4 mM KCl, 2 mM CaCl2), 1 mM MgCl2, 10 mM HEPES, 10 mM glucose, pH 7.4 with NaOH and 300 mOsm/L. The internal solution contained 120 mM L-aspartic acid, 120 mM CsOH·H2O, 20 mM CsCl, 2 mM MgCl2, 8.8 mM CaCl2), 10 mM EGTA, 10 mM HEPES, 10 mM Glucose, 0.1 mM GTP and 2 mM Na2ATP; pH 7.2 with CsOH and 290 mOsm/L. The free internal Ca2+ concentration was buffered to 1 μM.
The automated electrophysiological platform QPatch 16 from Sophion (Denmark) was used to carry out the compounds profiling. The series resistance and quality of seals were continuously monitored during the experiments. Data was analyzed using Sophion QPatch assay software 5.6 (Odense). IC50 values were calculated using a least squares regression algorithm (Hill equation).
To monitor the ion currents, a voltage ramp from −100 mV to +100 mV, over 300 ms, was applied every 10 seconds, from a holding potential of −60 mV.
After recording for a minimum of 60 seconds control period, Rosiglitazone (30 uM), was applied to activate the channel.

[1] = Table 3, 80 mV, read-out: TRPC5_QP_ XC50_80
[2] = Table 3, 100 mV, read-out: TRPC5_QP_ XC50_100
[3] = Table 4, 80 mV, read-out: TRPC5_QP_ XC50_80
[4] = Table 4, 100 mV, read-out: TRPC5_QP_ XC50_100
[5] = Table 5, 80 mV, read-out: TRPC5_QP_ XC50_80
[6] = Table 5, 100 mV, read-out: TRPC5_QP_ XC50_100
[7] = 80 mV, read-out: TRPC5_QP XC50_80
[8] = 100 mV, read-out: TRPC5_QP XC50_100

Structure (SMILES): Cc1ccccc1CN1CCN(c2cn[nH]c(=O)c2C#CC2CC2)CC1=O
- IC50 [1]: 10 to 500 µM
- IC50 [2]: 10 to 500 µM

Structure (SMILES): Cc1cc(F)ccc1CN1CCN(c2c(Cl)c(Br)n[nH]c2=O)CC1=O
- IC50 [3]: 10 to 500 µM
- IC50 [4]: 10 to 500 µM

Structure (SMILES): Cc1ccccc1CN1CCN(c2cn[nH]c(=O)c2C(C)C)CC1=O
- IC50 [3]: 1 to 5 µM
- IC50 [4]: 1 to 5 µM

Structure (SMILES): O=C1CN(c2cn[nH]c(=O)c2Cl)CCN1Cc1cccnc1Oc1ccccc1
- IC50 [5]: 5 to 10 µM
- IC50 [6]: 5 to 10 µM

Structure (SMILES): CC(C)=Cc1c(N2CCN(Cc3ccccc3C)C(=O)C2)cn[nH]c1=O
- IC50 [3]: 10 to 500 µM
- IC50 [4]: 10 to 500 µM

Structure (SMILES): C[C@@H]1CN(Cc2cccc3ccccc23)CCN1c1cn[nH]c(=O)c1Cl
- IC50 [3]: 5 to 10 µM
- IC50 [4]: 5 to 10 µM

Structure (SMILES): Cc1ccccc1C(=O)N1CCN(c2cn[nH]c(=O)c2Br)CC1
- IC50 [7]: 5 to 10 µM
- IC50 [8]: 5 to 10 µM

Structure (SMILES): Cc1ccccc1CN1CCN(c2cn[nH]c(=O)c2C2=CCOCC2)CC1=O
- IC50 [1]: 10 to 500 µM
- IC50 [2]: 10 to 500 µM

Structure (SMILES): Cc1ccccc1CN1CCN(c2cn[nH]c(=O)c2-c2ccccn2)CC1=O
- IC50 [1]: 10 to 500 µM
- IC50 [2]: 10 to 500 µM

Structure (SMILES): C=Cc1c(N2CCN(Cc3ccccc3C)C(=O)C2)cn[nH]c1=O
- IC50 [3]: 1 to 5 µM
- IC50 [4]: 1 to 5 µM

Structure (SMILES): O=C1CN(c2c(Cl)c(Br)n[nH]c2=O)CCN1Cc1ccccc1OC(F)(F)F
- IC50 [3]: 10 to 500 µM
- IC50 [4]: 10 to 500 µM

Structure (SMILES): Cc1ccccc1CN1CCN(c2cn[nH]c(=O)c2Cl)CC1=O [drawing 664]
- IC50 [1]: 1e-05 to 1 µM
- IC50 [2]: 1e-05 to 1 µM

Structure (SMILES): O=C1CN(c2cn[nH]c(=O)c2Cl)CCN1Cc1ccc(-c2ccccc2)cc1
- IC50 [3]: 10 to 500 µM
- IC50 [4]: 10 to 500 µM

Structure (SMILES): CC(c1ccccc1)N1CCN(c2cn[nH]c(=O)c2Br)CC1 (stereo not drawn)
- IC50 [7]: 1 to 5 µM
- IC50 [8]: 5 to 10 µM

Structure (SMILES): CS(=O)(=O)c1ccc(CN2CCN(c3cn[nH]c(=O)c3Cl)CC2=O)cc1
- IC50 [5]: 10 to 500 µM
- IC50 [6]: 10 to 500 µM

Structure (SMILES): Cc1ccccc1CN1CCN(c2cn[nH]c(=O)c2OC2CCCC2)CC1=O
- IC50 [1]: 5 to 10 µM
- IC50 [2]: 5 to 10 µM

Structure (SMILES): Cc1ccccc1C(C)N1CCN(c2cn[nH]c(=O)c2Br)CC1 (stereo not drawn)
- IC50 [1]: 1 to 5 µM
- IC50 [2]: 1 to 5 µM

Structure (SMILES): O=c1[nH]ncc(N2CCN(C3(c4ccccc4)CC3)CC2)c1Cl
- IC50 [3]: 5 to 10 µM
- IC50 [4]: 5 to 10 µM

Structure (SMILES): O=C1CN(c2cn[nH]c(=O)c2Cl)CCN1CC1CCC(F)(F)CC1
- IC50 [5]: 5 to 10 µM
- IC50 [6]: 5 to 10 µM

Structure (SMILES): Cc1ccccc1CN1C2CC1CN(c1cn[nH]c(=O)c1Br)C2
- IC50 [1]: 10 to 500 µM
- IC50 [2]: 10 to 500 µM

Continued, values first:

- IC50 [5]: 10 to 500 µM
- IC50 [6]: 10 to 500 µM
Structure (SMILES): Cc1cc(F)ccc1CN1CCN(c2c(Cl)c(-c3ccccc3)n[nH]c2=O)CC1

- IC50 [7]: 1 to 5 µM
- IC50 [8]: 1 to 5 µM
Structure (SMILES): Cc1ccccc1CN1CCN(c2c(Br)cn[nH]c2=O)CC1

- IC50 [3]: 1 to 5 µM
- IC50 [4]: 1 to 5 µM
Structure (SMILES): Cc1cc(Cl)ccc1CN1CCN(c2cn[nH]c(=O)c2Cl)CC1=O [drawing 737]

- IC50 [5]: 1 to 5 µM
- IC50 [6]: 1 to 5 µM
Structure (SMILES): Cc1cc(F)ccc1CN1CCN(c2cc(=O)[nH]nc2-c2ccccc2)CC1

- IC50 [3]: 1 to 5 µM
- IC50 [4]: 1 to 5 µM
Structure (SMILES): C[C@@H]1CN(Cc2ccccc2C(F)(F)F)CCN1c1cn[nH]c(=O)c1Cl [drawing 716]

- IC50 [3]: 1 to 5 µM
- IC50 [4]: 1 to 5 µM
Structure (SMILES): O=c1[nH]ncc(N2CCN(Cc3ccccc3C(F)(F)F)CC2)c1Cl [drawing 699]

- IC50 [5]: 10 to 500 µM
- IC50 [6]: 10 to 500 µM
Structure (SMILES): C=Cc1n[nH]c(=O)c(Cl)c1N1CCN(Cc2ccc(F)cc2C)CC1

- IC50 [3]: 1 to 5 µM
- IC50 [4]: 1 to 5 µM
Structure (SMILES): Cc1cc(F)ccc1CN1CCN(c2cn[nH]c(=O)c2Cl)C(C)C1 (stereo not drawn)

- IC50 [5]: 1 to 5 µM
- IC50 [6]: 1 to 5 µM
Structure (SMILES): O=c1[nH]ncc(N2CCN(Cc3ccc(F)cc3C(F)(F)F)CC2)c1Cl

- IC50 [3]: 10 to 500 µM
- IC50 [4]: 10 to 500 µM
Structure (SMILES): COc1n[nH]c(=O)cc1N1CCN(Cc2ccc(F)cc2C)CC1
